The values that follow are results of earlier work, collected in US20220401366A1, “LONG ACTING NMDA ANTAGONISTS” (Consegna Pharma, Inc., priority 2019, published 2022).

For this data set the following is noted: S-ketamine versus R-ketamine.

For the compound `CN[C@]1(c2ccccc2Cl)CCCCC1=O` [S-ketamine], the “potency relative to R-ketamine” value is listed as “twice as potent as R-ketamine”.
